Results taken from patent US6303619A, “Meta-substituted acidic 8-phenylxanthine antagonists of A3 human adenosine receptors” (priority 1998, dated 2001).

Target: T1, human A1 adenosine receptor (Homo sapiens, UniProt P30542)
T1 construct: expressed in transfected cells; host or cells: COS7 or CHO cells
T1 sequence (P30542 1-326): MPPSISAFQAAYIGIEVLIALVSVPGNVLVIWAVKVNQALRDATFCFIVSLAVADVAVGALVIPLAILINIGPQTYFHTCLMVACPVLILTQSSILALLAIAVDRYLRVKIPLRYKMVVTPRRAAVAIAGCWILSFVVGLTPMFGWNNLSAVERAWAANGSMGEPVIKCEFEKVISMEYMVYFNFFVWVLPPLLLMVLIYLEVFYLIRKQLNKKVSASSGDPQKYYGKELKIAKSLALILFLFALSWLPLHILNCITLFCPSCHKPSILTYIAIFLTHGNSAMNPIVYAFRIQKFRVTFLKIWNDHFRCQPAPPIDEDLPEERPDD
Experiment: competition binding, recombinant human A1 adenosine receptor
Settings: A3 versus A1
Procedure: Monolayer cell culture of transfected COS7 cells were dissociated with 1 mM EDTA in phosphate buffered saline and resuspended in 5 mM Tris, pH7.6/10 mM MgCl2. The cells were subjected to freeze-thaw lysis and the suspension was homogenized in a glass dounce homogenizer. The membranes were pelleted, resuspended in binding buffer, 50 mM Tris pH 7.6/10 mM MgCl2 and incubated with adenosine deaminase before the binding assay. The binding assay was performed by incubating 50-100 Fg of membranes with increasing concentrations of radiolabeled adenosine agonists. Bound ligand was separated from free ligand by filtration on a SKATRON CELL […] equipped with a receptor binding filtermat. Bound radioactivity was measured by scintillation counting. Substances which bind to or enhance binding to expressed human adenosine receptors in COS and CHO cells can be identified in competition binding assays with radiolabeled adenosine or xanthine analogs. […] Protein concentration was determined by tie method of Bradford ((1976) Anal. Biochem. 72: 248-250). […] Bound radioactivity was measured by scintillation counting in READY SAFE SCINTILLATION COCKTAIL (BECKMAN). […] Non-specific binding was determined in the presence of 100 FM CPA. Bound radioactivity was measured by scintillation counting in READY SAFE LIQUID SCINTILLATION COCKTAIL (BECKMAN).

fold selectivity for A3 compared to human A1: 47 fold
Compound: CCCn1c(=O)c2[nH]c(-c3cccc(C=CC(=O)O)c3)nc2n(CCC)c1=O [BW-3911]
